Source: US10227327B2, “Inhibitors of metallo-beta-lactamase (MBL) comprising a zinc chelating moiety” (Universitetet I Oslo, priority 2013, dated 2019)

Experiments:
Test in all cases: Microbroth dilution, meropenem MIC with/without compound
Assay type in all cases: cell-based
E. coli 50639799 (VIM-1) = settings: compound at 125 μM; 50639799 E. coli VIM-1
Experimental: (§1) General Protocol for Microbroth Dilution Method for Evaluating Antibacterial Activity of Compounds or Synergistic Effect of Compound-Antibiotic Combination
(§2) • Plate bacterial strain(s) on appropriate media: • Gram-negative bacteria with ESBLs or carbapenemases: green agar plates with 100 mg/L ampicillin • Gram-negative bacteria without β-lactamases: green agar plates • Gram-positive bacteria (Staphylococci and Enterococci): blood agar plates • Incubate o.n. at 37° C. Day 2: Prepare the Bacterial Inoculum: • Prepare a 0.5 McFarland suspension of bacteria in 0.85% NaCl. (Should be used within 15 min of preparation). • Dilute the 0.5 McFarland suspension 1:100 into MH broth. Check the inoculum by diluting the prepared bacterial suspension 1:100 (10 μl bacterial suspension+990 μl 0.85% NaCl). Plate 10 μl of the dilution on MH agar plates (×2). Incubate o.n. at 37° C., count the colonies and calculate the final CFU/ml inoculum in the plate by multiplying the average number of colonies with 10000 and divide by 2. The final inoculum should be between 3-7×10^5 CFU/ml. • Add 50 μl of the prepared bacterial suspension to each well in the microtiter plate except negative growth control. Preparation of Compounds/Antibiotics • Calculate the desired concentration-range and volume of the compounds/antibiotics in the assay. […] Dilute the stock solution in MH broth. Make subsequent 2-fold dilutions in MH broth of the desired concentrations if a concentration range is to be tested (remember the extra dilution factor in the assay plate). Always include extra volume for pipetting. Take into consideration stock solutions that are made in buffers that have an effect on bacterial growth (e.g. DMSO). Assay: • Determining the MIC of compounds/antibiotics alone: • Add 25 μl of each concentration of compound/antibiotic to row 2-11 (highest concentration in row 2) • Add 25 μl MH broth to row 2-11 • Add 50 μl MH broth to row 12 (positive control) • Add 100 μl MH broth to row 1 • Add 50 μl bacterial suspension to row 2-12. • Determining the MIC of antibiotics+compounds: • Add 25 μl of each concentration of antibiotic to row 2-11 (highest concentration in row 2) • Add 25 μl of compound to row 2-11 • Add 50 μl MH broth to row 12 (positive control) • Add 100 μl MH broth to row 1 • Add 50 μl bacterial suspension to row 2-12. • Incubate the plate for 20 hrs at 37° C. and determine the MIC in the presence and absence of inhibitor.

[1] = tested on: P. aeruginosa K34-7 (VIM-2); settings: compound at 125 μM; K34-7 P. aeruginosa VIM-2
Experimental: as §1, §2

[2] = tested on: P. aeruginosa 50692172 (NDM-1); settings: compound at 125 μM; 50692172 P. aeruginosa NDM-1
Experimental: as §1, §2

[3] = tested on: K. pneumoniae K66-45 (NDM-1); settings: compound at 125 μM; K66-45 K. pneumoniae NDM-1
Experimental: as §1, §2

E. coli K71-77 (NDM-1) = settings: compound at 125 μM; K71-77 E. coli NDM-1
Experimental: as §1, §2

[4] = tested on: K. pneumoniae A3-81 (VIM-1); settings: compound at 125 μM; A3-81 K. pneumoniae VIM-1
Experimental: as §1, §2

Meropenem MIC (mg/L) in presence of compound (E. coli 50639799 (VIM-1)): 16 mg/L | Meropenem MIC (mg/L) in presence of compound [1]: 32 mg/L | Meropenem MIC (mg/L) in presence of compound [2]: 32 to 64 mg/L | Meropenem MIC (mg/L) in presence of compound [3]: 64 mg/L | Meropenem MIC (mg/L) in presence of compound (E. coli K71-77 (NDM-1)): 2 to 4 mg/L | Meropenem MIC (mg/L) in presence of compound [4]: 64 to 128 mg/L
SMILES: C[C@H](CS)C(=O)N1CCC[C@H]1C(=O)O [Captopril]
